Measured values published in PubChem BioAssay (NCI).
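Five concentrations, 48 hours, 96-well plates. Definition used: TGI = concentration required for complete inhibition of growth.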

What was measured:
Test in all cases: NCI tumour cell line growth inhibition, 48 h
786-0 renal = test system: 786-0 renal
A498 renal = test system: A498 renal
A549 NSCLC = test system: A549 NSCLC
ACHN renal = test system: ACHN renal
BT-549 breast = test system: BT-549 breast
CAKI-1 renal = test system: CAKI-1 renal
CCRF-CEM leukemia = test system: CCRF-CEM leukemia
COLO 205 colon = test system: COLO 205 colon
DLD-1 colon = test system: DLD-1 colon
DMS 114 small cell lung = test system: DMS 114 small cell lung
DMS 273 small cell lung = test system: DMS 273 small cell lung
DU-145 prostate = test system: DU-145 prostate
EKVX NSCLC = test system: EKVX NSCLC
HCC-2998 colon = test system: HCC-2998 colon
HCT-116 colon = test system: HCT-116 colon
HCT-15 colon = test system: HCT-15 colon
HL-60(TB) leukemia = test system: HL-60(TB) leukemia
HOP-18 NSCLC = test system: HOP-18 NSCLC
HOP-62 NSCLC = test system: HOP-62 NSCLC
HOP-92 NSCLC = test system: HOP-92 NSCLC
HS 578T breast = test system: HS 578T breast
HT29 colon = test system: HT29 colon
IGROV1 ovarian = test system: IGROV1 ovarian
K-562 leukemia = test system: K-562 leukemia
KM12 colon = test system: KM12 colon
KM20L2 colon = test system: KM20L2 colon
LOX IMVI melanoma = test system: LOX IMVI melanoma
LXFL 529 NSCLC = test system: LXFL 529 NSCLC
M14 melanoma = test system: M14 melanoma
M19-MEL melanoma = test system: M19-MEL melanoma
MALME-3M melanoma = test system: MALME-3M melanoma
MCF7 breast = test system: MCF7 breast
MDA-MB-231 breast = test system: MDA-MB-231 breast
MDA-MB-435 = test system: MDA-MB-435
MDA-N = test system: MDA-N
MOLT-4 leukemia = test system: MOLT-4 leukemia
NCI-H226 lung = test system: NCI-H226 lung
NCI-H23 lung = test system: NCI-H23 lung
NCI-H460 lung = test system: NCI-H460 lung
NCI-H522 lung = test system: NCI-H522 lung
NCI/ADR-RES ovarian = test system: NCI/ADR-RES ovarian
OVCAR-3 ovarian = test system: OVCAR-3 ovarian
OVCAR-4 ovarian = test system: OVCAR-4 ovarian
OVCAR-5 ovarian = test system: OVCAR-5 ovarian
OVCAR-8 ovarian = test system: OVCAR-8 ovarian
P388/ADR leukemia = test system: P388/ADR leukemia
PC-3 prostate = test system: PC-3 prostate
RPMI-8226 leukemia = test system: RPMI-8226 leukemia
RXF 393 renal = test system: RXF 393 renal
RXF-631 renal = test system: RXF-631 renal
SF-268 CNS = test system: SF-268 CNS
SF-295 CNS = test system: SF-295 CNS
SF-539 CNS = test system: SF-539 CNS
SK-MEL-2 melanoma = test system: SK-MEL-2 melanoma
SK-MEL-28 melanoma = test system: SK-MEL-28 melanoma
SK-MEL-5 melanoma = test system: SK-MEL-5 melanoma
SK-OV-3 ovarian = test system: SK-OV-3 ovarian
SN12C renal = test system: SN12C renal
SN12K1 renal = test system: SN12K1 renal
SNB-19 CNS = test system: SNB-19 CNS
SNB-75 CNS = test system: SNB-75 CNS
SNB-78 CNS = test system: SNB-78 CNS
SR leukemia = test system: SR leukemia
SW-620 colon = test system: SW-620 colon
T-47D breast = test system: T-47D breast
TK-10 renal = test system: TK-10 renal
U251 CNS = test system: U251 CNS
UACC-257 melanoma = test system: UACC-257 melanoma
UACC-62 melanoma = test system: UACC-62 melanoma
UO-31 renal = test system: UO-31 renal
XF 498 CNS = test system: XF 498 CNS
P388 leukemia = test system: P388 leukemia

SMILES: Cc1c2ccn(O)cc2c(C)c2c1nc1ccccc12
- TGI (786-0 renal): 35.4 µM
- TGI (A498 renal): 55.6 µM
- TGI (A549 NSCLC): > 100 µM
- TGI (ACHN renal): > 85.7 µM
- TGI (BT-549 breast): 53.8 µM
- TGI (CAKI-1 renal): > 51.7 µM
- TGI (CCRF-CEM leukemia): > 60.1 µM
- TGI (COLO 205 colon): > 100 µM
- TGI (DLD-1 colon): > 100 µM
- TGI (DMS 114 small cell lung): 47.1 µM
- TGI (DMS 273 small cell lung): 31.1 µM
- TGI (DU-145 prostate): > 100 µM
- TGI (EKVX NSCLC): > 71.3 µM
- TGI (HCC-2998 colon): 98.5 µM
- TGI (HCT-116 colon): 24.7 µM
- TGI (HCT-15 colon): > 100 µM
- TGI (HL-60(TB) leukemia): 38.3 µM
- TGI (HOP-18 NSCLC): 99.4 µM
- TGI (HOP-62 NSCLC): 27.5 µM
- TGI (HOP-92 NSCLC): 38.5 µM
- TGI (HS 578T breast): 8.44 µM
- TGI (HT29 colon): > 100 µM
- TGI (IGROV1 ovarian): 55.8 µM
- TGI (K-562 leukemia): > 81.4 µM
- TGI (KM12 colon): > 100 µM
- TGI (KM20L2 colon): > 100 µM
- TGI (LOX IMVI melanoma): 17.1 µM
- TGI (LXFL 529 NSCLC): > 100 µM
- TGI (M14 melanoma): > 100 µM
- TGI (M19-MEL melanoma): > 100 µM
- TGI (MALME-3M melanoma): > 41.8 µM
- TGI (MCF7 breast): > 100 µM
- TGI (MDA-MB-231 breast): > 100 µM
- TGI (MDA-MB-435): > 100 µM
- TGI (MDA-N): > 100 µM
- TGI (MOLT-4 leukemia): 16.8 µM
- TGI (NCI-H226 lung): 29 µM
- TGI (NCI-H23 lung): 30.2 µM
- TGI (NCI-H460 lung): 37.9 µM
- TGI (NCI-H522 lung): 22.3 µM
- TGI (NCI/ADR-RES ovarian): > 100 µM
- TGI (OVCAR-3 ovarian): > 81.7 µM
- TGI (OVCAR-4 ovarian): > 100 µM
- TGI (OVCAR-5 ovarian): 53.5 µM
- TGI (OVCAR-8 ovarian): 64.4 µM
- TGI (P388/ADR leukemia): > 42.2 µM
- TGI (PC-3 prostate): 30.2 µM
- TGI (RPMI-8226 leukemia): > 100 µM
- TGI (RXF 393 renal): 22.6 µM
- TGI (RXF-631 renal): > 100 µM
- TGI (SF-268 CNS): 27.5 µM
- TGI (SF-295 CNS): 23.4 µM
- TGI (SF-539 CNS): 11 µM
- TGI (SK-MEL-2 melanoma): > 50 µM
- TGI (SK-MEL-28 melanoma): > 100 µM
- TGI (SK-MEL-5 melanoma): > 100 µM
- TGI (SK-OV-3 ovarian): 39.6 µM
- TGI (SN12C renal): > 100 µM
- TGI (SN12K1 renal): 27.3 µM
- TGI (SNB-19 CNS): 30.8 µM
- TGI (SNB-75 CNS): 21.3 µM
- TGI (SNB-78 CNS): > 69.6 µM
- TGI (SR leukemia): 15.2 µM
- TGI (SW-620 colon): > 100 µM
- TGI (T-47D breast): 8.93 µM
- TGI (TK-10 renal): > 66.1 µM
- TGI (U251 CNS): 16.7 µM
- TGI (UACC-257 melanoma): > 100 µM
- TGI (UACC-62 melanoma): 41.6 µM
- TGI (UO-31 renal): 27.5 µM
- TGI (XF 498 CNS): 20.9 µM

SMILES: CSCC[C@@H]1C(=O)N(C)[C@H](C(C)(C)C)N1C(=O)c1ccccc1
- TGI (A498 renal): > 100 µM
- TGI (A549 NSCLC): > 100 µM
- TGI (CCRF-CEM leukemia): > 100 µM
- TGI (COLO 205 colon): > 100 µM
- TGI (DLD-1 colon): > 100 µM
- TGI (DMS 114 small cell lung): > 100 µM
- TGI (DMS 273 small cell lung): > 100 µM
- TGI (EKVX NSCLC): > 100 µM
- TGI (HCC-2998 colon): > 100 µM
- TGI (HCT-116 colon): > 100 µM
- TGI (HCT-15 colon): > 100 µM
- TGI (HL-60(TB) leukemia): > 100 µM
- TGI (HOP-18 NSCLC): > 100 µM
- TGI (HOP-62 NSCLC): > 100 µM
- TGI (HOP-92 NSCLC): > 100 µM
- TGI (HT29 colon): > 100 µM
- TGI (IGROV1 ovarian): > 100 µM
- TGI (K-562 leukemia): > 100 µM
- TGI (KM12 colon): > 100 µM
- TGI (KM20L2 colon): > 100 µM
- TGI (LOX IMVI melanoma): > 100 µM
- TGI (M19-MEL melanoma): > 100 µM
- TGI (MALME-3M melanoma): > 100 µM
- TGI (MCF7 breast): > 100 µM
- TGI (MOLT-4 leukemia): > 100 µM
- TGI (NCI-H226 lung): > 100 µM
- TGI (NCI-H23 lung): > 100 µM
- TGI (NCI-H460 lung): > 100 µM
- TGI (NCI-H522 lung): > 100 µM
- TGI (NCI/ADR-RES ovarian): > 100 µM
- TGI (OVCAR-3 ovarian): > 100 µM
- TGI (OVCAR-4 ovarian): > 100 µM
- TGI (OVCAR-5 ovarian): > 100 µM
- TGI (OVCAR-8 ovarian): > 100 µM
- TGI (P388 leukemia): > 100 µM
- TGI (RPMI-8226 leukemia): > 100 µM
- TGI (RXF 393 renal): > 100 µM
- TGI (SF-268 CNS): > 100 µM
- TGI (SF-295 CNS): > 100 µM
- TGI (SF-539 CNS): > 100 µM
- TGI (SK-MEL-2 melanoma): > 100 µM
- TGI (SK-MEL-28 melanoma): > 100 µM
- TGI (SK-MEL-5 melanoma): > 100 µM
- TGI (SK-OV-3 ovarian): > 100 µM
- TGI (SN12C renal): > 100 µM
- TGI (SN12K1 renal): > 100 µM
- TGI (SNB-19 CNS): > 100 µM
- TGI (SNB-75 CNS): > 100 µM
- TGI (SNB-78 CNS): > 100 µM
- TGI (SW-620 colon): > 100 µM
- TGI (U251 CNS): > 100 µM
- TGI (UACC-257 melanoma): > 100 µM
- TGI (UACC-62 melanoma): > 100 µM
- TGI (UO-31 renal): > 100 µM
- TGI (XF 498 CNS): > 100 µM
